From patent US11267811B2, “Small molecule inhibitors of galectin-3” (BRISTOL-MYERS SQUIBB COMPANY, priority 2017, dated 2022) come the findings set out here.

Where two headings read alike, the source gives them in different places.

The target of this assay is His-tagged recombinant human Gal-3 (hGal-3) (Homo sapiens (Human), UniProt P17931). As to the kind of experiment: Gal-3 HTRF assay (His-tagged hGal-3 binding to B-ASF).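 Further: compounds preincubated 30 min with hGal-3, then 1 h with B-ASF, detection via terbium anti-His antibody and streptavidin d2. Control with B-ASF counts as full signal, omitting B-ASF as background.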
Setting [1] is: HTRF, hGal-3 15 nM, B-ASF 15 nM, read-out: hGal-3 IC50.

His-tagged recombinant human Gal-3 (hGal-3), sequence (P17931 whole entry): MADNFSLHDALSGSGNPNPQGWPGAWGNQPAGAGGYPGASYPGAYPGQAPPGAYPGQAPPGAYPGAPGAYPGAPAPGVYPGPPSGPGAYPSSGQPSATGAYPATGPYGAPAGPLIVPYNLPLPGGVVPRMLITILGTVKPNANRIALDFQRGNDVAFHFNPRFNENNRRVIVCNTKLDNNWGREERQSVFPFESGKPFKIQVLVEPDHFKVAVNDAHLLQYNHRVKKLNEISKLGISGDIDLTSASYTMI

`OC[C@H]1O[C@@H](c2nncn2-c2ccc(OC(F)(F)F)cc2)[C@H](O)[C@@H](n2cc(-c3cc(F)c(F)c(F)c3)nn2)[C@H]1O` [Example 94]: the IC50 under setting [1] was determined as 1130 nM.

For `OC[C@H]1O[C@@H](c2ncnn2[C@@H]2CCCC[C@H]2O)[C@H](O)[C@@H](n2cc(-c3cc(F)c(F)c(F)c3)nn2)[C@H]1O` [Example 171], under setting [1], the IC50 was 2020 nM.

As for `OC[C@H]1O[C@@H](c2nncn2-c2cccc(OC(F)(F)F)c2)[C@H](O)[C@@H](n2cc(-c3cc(F)c(F)c(F)c3)nn2)[C@H]1O` [Example 93], the IC50 under setting [1] worked out at 190 nM.

Take `Cc1nc2ccc(-n3c(C)nnc3[C@@H]3O[C@H](CO)[C@H](O)[C@H](n4cc(-c5cc(F)c(Cl)c(F)c5)nn4)[C@H]3O)cc2s1` [Example 306]: where the note is “read-out: hGal3 IC50”, the IC50 was 35 nM.

In the case of `Cn1cc2ccc(-n3cnnc3[C@@H]3O[C@H](CO)[C@H](O)[C@H](n4cc(-c5cc(F)c(F)c(F)c5)nn4)[C@H]3O)cc2n1` [Example 167], under setting [1], the IC50 came out at 300 nM.

`OC[C@H]1O[C@@H](c2nncn2-c2cccc(Oc3ccccc3)c2)[C@H](O)[C@@H](n2cc(-c3cc(F)c(F)c(F)c3)nn2)[C@H]1O` [Example 78]: under setting [1], the IC50 is 830 nM.

On to `OC[C@H]1O[C@@H](n2ccc3cc(Cl)ccc32)[C@H](O)[C@@H](n2cc(-c3cc(F)c(F)c(F)c3)nn2)[C@H]1O` [Example 291, (2R,3R,4S,5R,6R)-2-(5-chloro-1H-indol-1-yl)-6-(hydroxymethyl)-4-(4-(3,4,5-trifluorophenyl)-1H-1,2,3-triazol-1-yl)tetrahydro-2H-pyran-3,5-diol], for which the IC50 under setting [1] turned out to be 10000 nM.

Regarding `Cc1nc([C@@H]2O[C@H](CO)[C@H](O)[C@H](n3cc(-c4cc(F)c(Cl)c(F)c4)nn3)[C@H]2O)n(-c2cc3sc(C)nc3cc2C(F)(F)F)n1` [Example A30], where the note is “read-out: hGal IC50”, the IC50 was 17 nM.

As for `Cc1nc([C@@H]2O[C@H](CO)[C@H](O)[C@H](n3cc(-c4cccc(F)c4)nn3)[C@H]2O)oc1CO` [Example 300, (2R,3R,4S,5R,6R)-4-(4-(3-fluorophenyl)-1H-1,2,3-triazol-1-yl)-2-(hydroxymethyl)-6-(5-(hydroxymethyl)-4-methyloxazol-2-yl)tetrahydro-2H-pyran-3,5-diol], the 50% inhibitory concentration (IC50) under setting [1] turned out to be 9430 nM.

`O=C(O)c1ccc(-n2ncnc2[C@@H]2O[C@H](CO)[C@H](O)[C@H](n3cc(-c4cc(F)c(F)c(F)c4)nn3)[C@H]2O)cc1` [Example 32]: the IC50 under setting [1] is 590 nM.

For `Cc1nc2ccc(-n3ncnc3[C@@H]3O[C@H](CO)[C@H](O)[C@H](n4cc(-c5cc(F)c(F)c(F)c5)nn4)[C@H]3O)cc2s1` [Example 45], the IC50 under setting [1] worked out at 60 nM.

For the compound `CO[C@@H]1[C@@H](n2cc(-c3cc(F)c(F)c(F)c3)nn2)[C@@H](O)[C@@H](CO)O[C@H]1c1ncnn1-c1ccc2ncsc2c1` [Example 192], the IC50 under setting [1] is 40 nM.

Turning to `Cc1ccc(Cl)cc1-n1ncnc1[C@H]1C[C@@H](n2cc(-c3cc(F)c(F)c(F)c3)nn2)[C@@H](O)[C@@H](CO)O1` [Example 178], under setting [1], the IC50 stood at 250 nM.
